Data as given in the NIST ThermoML archive (doi:10.1021/acs.jced.9b00415).

Experiment: xn = mol fraction of the nth substance listed
Settings: 102 kPa, Liquid; for viscosity: Concentric cylinders viscometry; for mass density: Vibrating tube method

CCCCn1cc[n+](C)c1.CS(=O)(=O)[O-] [1-butyl-3-methylimidazolium methanesulfonate] + CCCCn1cc[n+](C)c1.O=[N+]([O-])[O-]
Settings	mass density [kg/m3]	viscosity [mPa·s]
303.15 K, x2 = 0.9	1154.3	180.1
308.15 K, x2 = 0.9	1151.1	135.4
313.15 K, x2 = 0.8	1149.3	113.6
313.15 K, x2 = 0.9	1147.9	104
318.15 K, x2 = 0.6	1150.5	103
318.15 K, x2 = 0.7	1148.5	97.85
318.15 K, x2 = 0.8	1146.2	88.38
318.15 K, x2 = 0.9	1144.7	81.49
323.15 K, x2 = 0.6	1147.3	80.7
323.15 K, x2 = 0.7	1145.4	77.05
323.15 K, x2 = 0.8	1143	70.03
323.15 K, x2 = 0.9	1141.6	64.96
328.15 K, x2 = 0.4	1146.9	70.76
328.15 K, x2 = 0.5	1145.4	66.57
328.15 K, x2 = 0.6	1144.1	64.37
328.15 K, x2 = 0.7	1142.2	61.72
328.15 K, x2 = 0.8	1139.9	56.42
328.15 K, x2 = 0.9	1138.5	52.61
333.15 K, x2 = 0.3	1144.9	59.13
333.15 K, x2 = 0.4	1143.8	56.85
333.15 K, x2 = 0.5	1142.2	53.7
333.15 K, x2 = 0.6	1141	52.18
333.15 K, x2 = 0.7	1139.1	50.22
333.15 K, x2 = 0.8	1136.8	46.14
333.15 K, x2 = 0.9	1135.4	43.23
338.15 K, x2 = 0.3	1141.8	48.04
338.15 K, x2 = 0.4	1140.6	46.37
338.15 K, x2 = 0.5	1139.1	43.99
338.15 K, x2 = 0.6	1137.9	42.9
338.15 K, x2 = 0.7	1136	41.44
338.15 K, x2 = 0.8	1133.7	38.25
338.15 K, x2 = 0.9	1132.3	35.99
343.15 K, x2 = 0.3	1138.6	39.58
343.15 K, x2 = 0.4	1137.5	38.34
343.15 K, x2 = 0.5	1136	36.52
343.15 K, x2 = 0.6	1134.8	35.74
343.15 K, x2 = 0.7	1132.9	34.63
343.15 K, x2 = 0.8	1130.6	32.11
343.15 K, x2 = 0.9	1129.3	30.32
348.15 K, x2 = 0.1	1138.3	34.98
348.15 K, x2 = 0.2	1136.8	34.5
348.15 K, x2 = 0.3	1135.5	33.03
348.15 K, x2 = 0.4	1134.4	32.1
348.15 K, x2 = 0.5	1132.9	30.69
348.15 K, x2 = 0.6	1131.7	30.13
348.15 K, x2 = 0.7	1129.9	29.28
348.15 K, x2 = 0.8	1127.6	27.25
348.15 K, x2 = 0.9	1126.2	25.81
353.15 K, x2 = 0.1	1135.2	29.38
353.15 K, x2 = 0.2	1133.6	29.04
353.15 K, x2 = 0.3	1132.4	27.88
353.15 K, x2 = 0.4	1131.3	27.17
353.15 K, x2 = 0.5	1129.8	26.08
353.15 K, x2 = 0.6	1128.6	25.68
353.15 K, x2 = 0.7	1126.8	25.02
353.15 K, x2 = 0.8	1124.5	23.36
353.15 K, x2 = 0.9	1123.2	22.2
358.15 K, x2 = 0.1	1132	24.94
358.15 K, x2 = 0.2	1130.5	24.71
358.15 K, x2 = 0.3	1129.3	23.79
358.15 K, x2 = 0.4	1128.2	23.23
358.15 K, x2 = 0.5	1126.8	22.38
358.15 K, x2 = 0.6	1125.6	22.09
358.15 K, x2 = 0.7	1123.8	21.57
358.15 K, x2 = 0.8	1121.5	20.21
358.15 K, x2 = 0.9	1120.2	19.26
363.15 K, x2 = 0.1	1128.9	21.39
363.15 K, x2 = 0.2	1127.4	21.27
363.15 K, x2 = 0.3	1126.2	20.51
363.15 K, x2 = 0.4	1125.1	20.04
363.15 K, x2 = 0.5	1123.7	19.36
363.15 K, x2 = 0.6	1122.5	19.18
363.15 K, x2 = 0.7	1120.7	18.76
363.15 K, x2 = 0.8	1118.5	17.63
363.15 K, x2 = 0.9	1117.2	16.86
